Earlier results on 3 molecules are cited in patent US7230101B1, “Synthesis of methotrexate-containing heterodimeric molecules” (GPC Biotech, Inc., priority 2002, dated 2007).

Series [1] has as its target Glutathione-S-Transferase. To be noted: read-out: Affinity, dissociation constant, known in the art.
Series [2] concerns the target Tet-R (Escherichia coli, UniProt P04483). Particulars: dissociation constant, known in the art, read-out: Affinity.
Series [3] deals with 6 X His. To be noted: dissociation constant, known in the art, read-out: Affinity.

Structures are written as SMILES.

Chain of Tet-R (P04483 whole entry): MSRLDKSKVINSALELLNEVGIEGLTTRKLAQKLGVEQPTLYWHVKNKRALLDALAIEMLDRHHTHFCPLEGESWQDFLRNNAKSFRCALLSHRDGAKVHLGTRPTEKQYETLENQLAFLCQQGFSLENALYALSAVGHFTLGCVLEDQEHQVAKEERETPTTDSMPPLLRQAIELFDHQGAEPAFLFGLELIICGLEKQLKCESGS

As for `N[C@@H](CCC(=O)N[C@@H](CS)C(=O)NCC(=O)O)C(=O)O` [Glutathione], in series [1], the Kd was 24000 nM.
Take `CN(C)[C@@H]1C(=O)C(C(N)=O)=C(O)[C@@]2(O)C(=O)C3=C(O)c4c(O)cccc4[C@@](C)(O)[C@H]3C[C@@H]12` [Tetracyclin]: the Kd in series [2] was 24 nM.
As to `[Ni]` [Ni], in series [3], the Kd was 800 nM.
